The source of these data is patent publication EP2060571A1, “Insecticide iminoheterocycles” (Bayer CropScience AG, priority 2007, dated 2009).

Like-named read-outs stand apart in the source and are kept apart here.

Series [1] in a line: logP determination (acidic, HCOOH). Format: physicochemical.
A further series concerns Myzus persicae. Briefly: Myzus test (spray treatment). Format: in vivo. The settings on record: Aufwandmenge 500 g/ha, Chinakohlblattscheiben (Brassica pekinensis) sprayed, 100 % = all aphids killed, read-out: Wirkung. The text has this: Myzus-Test (Spritzbehandlung)
Zur Herstellung einer zweckmäßigen Wirkstoffzubereitung vermischt man 1 Gewichtsteil Wirkstoff mit den angegebenen Mengen Lösungsmittel und Emulgator und verdünnt das Konzentrat mit emulgatorhaltigem Wasser auf die gewünschte Konzentration.
Chinakohlblattscheiben (Brassica pekinensis), die von allen Stadien der Grünen Pfirsichblattlaus (Myzus persicae) befallen sind, werden mit einer Wirkstoffzubereitung der gewünschten Konzentration gespritzt.
Nach der gewünschten Zeit wird die Wirkung in % bestimmt. Dabei bedeutet 100 %, dass alle Blattläuse abgetötet wurden; 0 % bedeutet, dass keine Blattläuse abgetötet wurden.

In a further series the test system is Boophilus microplus. Nature of the series: Boophilus microplus test (BOOPMI injection). Format: in vivo. The settings on record: Aufwandmenge 20 µg/Tier; injected into the abdomen; 100 % = no tick laid fertile eggs. From the text:
Boophilus microplus -Test (BOOPMI Injektion)
Lösungsmittel: Dimethylsulfoxid
Zur Herstellung einer zweckmäßigen Wirkstoffzubereitung vermischt man 1 Gewichtsteil Wirkstoff mit der angegebenen Menge Lösungsmittel und verdünnt das Konzentrat mit Lösungsmittel auf die gewünschte Konzentration.
Die Wirkstofflösung wird in das Abdomen (Boophilus microplus) injiziert, die Tiere werden in Schalen überführt und in einem klimatisierten Raum aufbewahrt.
Nach der gewünschten Zeit wird die Wirkung in % bestimmt. Dabei bedeutet 100%, dass keine Zecke fertile Eier gelegt hat.

The mark [2] stands for this setting: hcooh, read-out: Phys. Daten = logP (HCOOH).
Setting [3] is: acidic (HCOOH), read-out: Phys. Daten = logP (HCOOH).

Take `C[C@H](NC(=S)NCCO)c1cccs1` [II-74]: in series [1] (setting [2]), the logP was 1.3.

As to `OCCNC(=S)NC1CCCc2sccc21` (stereo not shown) [II-3], in the series on Myzus persicae, the mortality at 500 g/ha was not below 80%. The logP in series [1] (setting [2]) stood at 1.7.

Consider `OCCNC(=S)NC1CCCc2occc21` (stereo not shown) [II-2, 1-(2-hydroxyethyl)-3-(4,5,6,7-tetrahydro-1-benzofuran-4-yl)thiourea], for which the mortality at 500 g/ha in the series with Myzus persicae is not below 80%. The log partition coefficient (logP) in series [1] (setting [2]) stood at 1.4; in series [1] (sauer, read-out: logP (sauer)) it was 1.4.

With `CC(C)c1cs/c(=N\C2CCc3ccsc32)n1CCO` (stereo not shown) [I-1, 2-[(2Z)-2-(5,6-dihydro-4H-cyclopenta[b]thiophen-6-ylimino)-4-(1-methylethyl)-1,3-thiazol-3(2H)-yl]ethanol], the mortality at 500 g/ha in the series on Myzus persicae is not below 80%. For the same compound, the logP in series [1] (setting [3]) turned out to be 1.19; in series [1] (sauer, read-out: logP (sauer)), 1.19. Besides, the Wirkung with Boophilus microplus is not below 80%.

Turning to `OCCNC(=S)NC1CCc2ccsc21` (stereo not shown) [II-1, (5,6-dihydro-4H-cyclopenta[b]thiophen-6-yl)-3-(2-hydroxyethyl)thiourea], the mortality at 500 g/ha in the series with Myzus persicae is not below 80%. Besides, the lipophilicity (logP) in series [1] (setting [2]) worked out at 1.47; in series [1] (sauer, read-out: logP (sauer)) it was 1.47.

Regarding `CC(C)c1cs/c(=N\C2CCCc3occc32)n1CCO` (stereo not shown) [I-2], the mortality at 500 g/ha with Myzus persicae is not below 80%. Moreover, the lipophilicity (logP) was found to be 1.23 in series [1] (setting [3]) and 1.23 in series [1] (sauer, read-out: logP (sauer)).
